Bounds are passed on as bounds.

One assay addresses Human plasma kallikrein (Homo sapiens (Human), UniProt P03952). As to the kind of experiment: Kallikrein Assay (fluorogenic substrate Acetyl-K-P-R-AFC). Type of assay: biochemical. Particulars: Plasma Kallikrein (PKal). On the procedure: (§1) The effectiveness of a compound of the present invention as an inhibitor of Kallikrein can be determined using a relevant purified serine protease, and an appropriate synthetic substrate. The rate of hydrolysis of the chromogenic or fluorogenic substrate by the relevant serine protease was measured both in the absence and presence of compounds of the present invention. Assays were conducted at room temperature or at 37° C. […] A decrease in the rate of fluorescence change in the presence of inhibitor is indicative of enzyme inhibition. Such methods are known to one skilled in the art. The results of this assay are expressed as the half-maximal inhibitory concentrations (IC50), or the inhibitory constant, Ki.
Kallikrein determinations were made in 50 mM HEPES buffer at pH 7.4 containing 150 mM NaCl, 5 mM CaC12, and 0.1% PEG 8000 (polyethylene glycol; Fisher Scientific). Determinations were made using purified Human plasma kallikrein at a final concentration of 0.5 nM (Enzyme Research Laboratories) and the synthetic substrate, Acetyl-K-P-R-AFC (Sigma # C6608) at a concentration of […].
Times required to achieve equilibration between enzyme and inhibitor were determined in control experiments. […] IC50 was determined by inflection point from a four parameter logistic curve fit. Ki was calculated using the Cheng Prusoff equation, Ki = IC50/(1+([S]/Km)).

The target of a further assay is human Factor XIa (Homo sapiens (Human), UniProt P03951). Description: Factor XIa Assay (fluorogenic substrate GPR-AFC). Particulars: Factor XIa (FXIa). Type of assay: biochemical. The protocol: as §1, with “Coagulation Factor XIa” for “Kallikrein”
human Factor XIa, sequence (P03951 388-625 limits assumed): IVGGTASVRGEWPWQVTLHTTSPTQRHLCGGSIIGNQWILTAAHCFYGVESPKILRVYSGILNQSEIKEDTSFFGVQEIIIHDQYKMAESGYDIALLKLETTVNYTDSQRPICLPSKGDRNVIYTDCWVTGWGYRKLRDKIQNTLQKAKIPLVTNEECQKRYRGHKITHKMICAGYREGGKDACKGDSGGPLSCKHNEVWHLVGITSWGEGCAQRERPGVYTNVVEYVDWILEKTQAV
human Factor XIa, sequence (P03951 19-387 partner limits assumed): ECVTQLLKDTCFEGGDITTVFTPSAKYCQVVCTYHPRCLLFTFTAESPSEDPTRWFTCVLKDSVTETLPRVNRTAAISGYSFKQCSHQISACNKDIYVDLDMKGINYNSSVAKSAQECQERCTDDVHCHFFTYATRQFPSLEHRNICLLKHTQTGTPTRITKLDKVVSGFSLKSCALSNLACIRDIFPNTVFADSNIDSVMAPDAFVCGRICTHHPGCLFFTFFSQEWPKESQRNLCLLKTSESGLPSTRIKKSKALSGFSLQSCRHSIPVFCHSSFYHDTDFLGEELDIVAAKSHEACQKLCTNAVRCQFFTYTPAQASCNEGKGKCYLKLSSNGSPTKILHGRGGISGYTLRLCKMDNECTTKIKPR
Compounds were pre-incubated for 30 minutes at 25° C. with human (0.04 nM) Factor XIa in 50 mM HEPES buffer with 150 mM sodium chloride, 5 mM calcium chloride, 0.1% PEG 8000, pH 7.4. […] The % inhibition for each data point was calculated from the data and analyzed using the log (inhibitor) vs. response four parameters equation to determine the half-maximal inhibitory concentrations (IC50). The IC50 were converted to equilibrium inhibitory constants (Ki) using the Cheng-Prusoff equation.

Human plasma kallikrein, sequence (P03952 391-638): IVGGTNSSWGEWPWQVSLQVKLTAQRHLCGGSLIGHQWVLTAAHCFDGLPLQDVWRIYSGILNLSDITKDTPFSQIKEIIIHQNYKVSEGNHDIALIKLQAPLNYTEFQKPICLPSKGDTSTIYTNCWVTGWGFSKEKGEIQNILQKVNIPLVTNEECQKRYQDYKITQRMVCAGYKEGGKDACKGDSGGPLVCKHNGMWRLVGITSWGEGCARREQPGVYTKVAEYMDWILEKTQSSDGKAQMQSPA
Human plasma kallikrein, sequence (P03952 20-390 partner): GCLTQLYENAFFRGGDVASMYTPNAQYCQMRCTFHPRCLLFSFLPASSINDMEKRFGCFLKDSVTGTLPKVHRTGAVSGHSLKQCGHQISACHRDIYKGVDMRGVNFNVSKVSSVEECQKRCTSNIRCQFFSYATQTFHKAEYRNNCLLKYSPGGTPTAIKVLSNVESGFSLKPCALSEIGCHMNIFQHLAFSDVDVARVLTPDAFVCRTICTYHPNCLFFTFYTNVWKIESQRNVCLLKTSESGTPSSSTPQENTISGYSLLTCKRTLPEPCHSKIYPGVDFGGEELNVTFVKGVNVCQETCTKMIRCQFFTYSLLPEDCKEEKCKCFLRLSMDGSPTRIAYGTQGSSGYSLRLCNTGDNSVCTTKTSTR

What is called IC50 is the midpoint of a concentration-inhibition curve. As for `Cc1cc(N2C[C@H]3C[C@H]3C2=O)ncc1C(C)n1cc(NC(=O)c2cncc(-c3c(C(F)F)ccc(Cl)c3F)n2)cn1` (single isomer, unassigned) [Example 68, 6-(3-Chloro-6-(difluoromethyl)-2-fluorophenyl)-N-(1-((S or R)-1-(4-methyl-6-((1R,5S)-2-oxo-3-azabicyclo[3.1.0]hexan-3-yl)pyridin-3-yl)ethyl)-1H-pyrazol-4-yl)pyrazine-2-carboxamide], the IC50 was found to be 1.1 nM on Human plasma kallikrein and 5250 nM on human Factor XIa. On to `Cc1ncc(-c2c(C(F)F)ccc(Cl)c2F)nc1C(=O)Nc1cnn(Cc2cnc(N3C[C@H]4C[C@H]4C3=O)c(F)c2)c1` [Example 82, 6-(3-Chloro-6-(difluoromethyl)-2-fluorophenyl)-N-(1-((5-fluoro-6-((1R,5S)-2-oxo-3-azabicyclo[3.1.0]hexan-3-yl)pyridin-3-yl)methyl)-1H-pyrazol-4-yl)-3-methylpyrazine-2-carboxamide], for which the IC50 is 1.8 nM against Human plasma kallikrein and 935 nM on human Factor XIa. With `Cc1ncc(-c2c(C(F)F)ccc(Cl)c2F)nc1C(=O)Nc1cnn([C@H](C)c2cnc(N3C[C@H]4C[C@H]4C3=O)c(N)c2)c1` [Example 190], the IC50 against Human plasma kallikrein amounted to 0.7 nM; against human Factor XIa, 1040 nM. As for `Cc1nc(N2C[C@H]3C[C@H]3C2=O)c(F)cc1C(C)n1cc(NC(=O)c2cncc(-c3c(C(F)F)ccc(Cl)c3F)n2)cn1` (some centres unmarked) [Example 150, 6-(3-Chloro-6-(difluoromethyl)-2-fluorophenyl)-N-(1-(1-(5-fluoro-2-methyl-6-((1R.5S)-2-oxo-3-azabicyclo[3.1.0]hexan-3-yl)pyridin-3-yl)ethyl)-1H-pyrazol-4-yl)pyrazine-2-carboxamide], the IC50 at Human plasma kallikrein is 177 nM; at human Factor XIa it was > 10000 nM. For `Cc1c(C(C)n2cc(NC(=O)c3cncc(-c4c(C(F)F)ccc(Cl)c4F)n3)cn2)cnc(N2C[C@H]3C[C@H]3C2=O)c1C` (single isomer, unassigned) [Example 152, 6-(3-Chloro-6-(difluoromethyl)-2-fluorophenyl)-N-(1-((R or S)-1-(4,5-dimethyl-6-((1R,5S)-2-oxo-3-azabicyclo[3.1.0]hexan-3-yl)pyridin-3-yl)ethyl)-1H-pyrazol-4-yl)pyrazine-2-carboxamide], in that order: 0.3 nM and 197 nM.

Consider `CC(c1cnc(N2C[C@H]3C[C@H]3C2=O)c2c1OC(F)(F)O2)n1cc(NC(=O)c2cncc(-c3c(C(F)F)ccc(Cl)c3F)n2)cn1` (single isomer, unassigned) [Example 248, 6-(3-Chloro-6-(difluoromethyl)-2-fluorophenyl)-N-(1-((R or S)-1-(2,2-difluoro-4-((1R,5S)-2-oxo-3-azabicyclo[3.1.0]hexan-3-yl)-[1,3]dioxolo[4,5-c]pyridin-7-yl)ethyl)-1H-pyrazol-4-yl)pyrazine-2-carboxamide], for which the IC50 was 22.3 nM at Human plasma kallikrein and > 10000 nM at human Factor XIa. For `COCc1ncc(-c2c(C(F)F)ccc(Cl)c2F)nc1C(=O)Nc1cnn(C(C)c2cnc(N3C[C@H]4C[C@H]4C3=O)c(C)n2)c1` (single isomer, unassigned) [Example 125, 6-(3-Chloro-6-(difluoromethyl)-2-fluorophenyl)-3-(methoxymethyl)-N-(1-((S or R)-1-(6-methyl-5-((1R,5S)-2-oxo-3-azabicyclo[3.1.0]hexan-3-yl)pyrazin-2-yl)ethyl)-1H-pyrazol-4-yl)pyrazine-2-carboxamide], in that order: 1.2 nM and 449 nM. On to `CC(c1cnc(N2C[C@H]3C[C@H]3C2=O)cn1)n1cc(NC(=O)c2cncc(-c3c(C(F)F)ccc(Cl)c3F)n2)cn1` (single isomer, unassigned) [Example 20, 6-(3-Chloro-6-(difluoromethyl)-2-fluorophenyl)-N-(1-((S or R)-1-(5-((1R,5S)-2-oxo-3-azabicyclo[3.1.0]hexan-3-yl)pyrazin-2-yl)ethyl)-1H-pyrazol-4-yl)pyrazine-2-carboxamide], for which the IC50 was 28.5 nM at Human plasma kallikrein and > 10000 nM against human Factor XIa. `Cc1ncc(-c2c(C#N)ccc(Cl)c2F)nc1C(=O)Nc1cnn(C(C)c2cnc(N3C[C@H]4C[C@H]4C3=O)c(C)n2)c1` (single isomer, unassigned) [Example 234, 6-(3-Chloro-6-cyano-2-fluorophenyl)-3-methyl-N-(1-((R or S)-1-(6-methyl-5-((1R,5S)-2-oxo-3-azabicyclo[3.1.0]hexan-3-yl)pyrazin-2-yl)ethyl)-1H-pyrazol-4-yl)pyrazine-2-carboxamide]: the IC50 was found to be 1 nM on Human plasma kallikrein and 679 nM at human Factor XIa.

With `CC(c1cnc(N2C[C@H]3C[C@H]3C2=O)c(F)c1)n1cc(NC(=O)c2nc(-c3c(C(F)F)ccc(Cl)c3F)cnc2COC(C)(C)C)cn1` (single isomer, unassigned) [Example 143, 3-(tert-Butoxymethyl)-6-(3-chloro-6-(difluoromethyl)-2-fluorophenyl)-N-(1-((S or R)-1-(5-fluoro-6-((1R,5S)-2-oxo-3-azabicyclo[3.1.0]hexan-3-yl)pyridin-3-yl)ethyl)-1H-pyrazol-4-yl)pyrazine-2-carboxamide], the figures for the IC50 on Human plasma kallikrein and at human Factor XIa were 4.9 nM and 4310 nM, respectively. Take `Cc1cc(C(C)n2cc(NC(=O)c3nc(-c4c(C#N)ccc(Cl)c4F)cnc3C)cn2)cnc1N1C[C@H]2C[C@H]2C1=O` (single isomer, unassigned) [Example 139, 6-(3-Chloro-6-cyano-2-fluorophenyl)-3-methyl-N-(1-((S or R)-1-(5-methyl-6-((1R,5S)-2-oxo-3-azabicyclo[3.1.0]hexan-3-yl)pyridin-3-yl)ethyl)-1H-pyrazol-4-yl)pyrazine-2-carboxamide]: the IC50 stood at 0.9 nM at Human plasma kallikrein and 282 nM at human Factor XIa. As for `CC(c1ncc(N2C[C@H]3C[C@H]3C2=O)cc1F)n1cc(NC(=O)c2cncc(-c3c(C(F)F)ccc(Cl)c3F)n2)cn1` (single isomer, unassigned) [Example 146, 6-(3-Chloro-6-(difluoromethyl)-2-fluorophenyl)-N-(1-((R or S)-1-(3-fluoro-5-((1R,5S)-2-oxo-3-azabicyclo[3.1.0]hexan-3-yl)pyridin-2-yl)ethyl)-1H-pyrazol-4-yl)pyrazine-2-carboxamide], the IC50 at Human plasma kallikrein is 9.8 nM; against human Factor XIa, > 10000 nM.

Compound `Cc1cc(C(C)n2cc(NC(=O)c3nc(-c4c(C(F)F)ccc(Cl)c4F)cnc3CO)cn2)cnc1N1C[C@H]2C[C@H]2C1=O` (single isomer, unassigned) [Example 200, 6-(3-Chloro-6-(difluoromethyl)-2-fluorophenyl)-3-(hydroxymethyl)-N-(1-((R or S)-1-(5-methyl-6-((1R,5S)-2-oxo-3-azabicyclo[3.1.0]hexan-3-yl)pyridin-3-yl)ethyl)-1H-pyrazol-4-yl)pyrazine-2-carboxamide] displayed an IC50 on Human plasma kallikrein of 0.2 nM. For the compound `Cc1cc(C(C)n2cc(NC(=O)c3nc(-c4c(C(F)F)ccc(Cl)c4F)cnc3CO)cn2)cnc1N1C[C@H]2C[C@H]2C1=O` (single isomer, unassigned) [Example 199, 6-(3-Chloro-6-(difluoromethyl)-2-fluorophenyl)-3-(hydroxymethyl)-N-(1-((S or R)-1-(5-methyl-6-((1R,5S)-2-oxo-3-azabicyclo[3.1.0]hexan-3-yl)pyridin-3-yl)ethyl)-1H-pyrazol-4-yl)pyrazine-2-carboxamide], the IC50 at Human plasma kallikrein worked out at 0.2 nM.

These data come from patent US20230286958A1, “PLASMA KALLIKREIN INHIBITORS” (Merck Sharp & Dohme LLC, priority 2020, published 2023).
